Data published in US8574607B2, “Spiroheterocyclic thiofuran dione derivatives” (Syngenta Crop Protection, Inc., priority 2009, dated 2013).
Read-outs that look alike come from different tables or passages of the source.

Tests used:
[1] = system: Myzus persicae (Green Peach Aphid); experiment: Example B1: Myzus persicae, mixed population, feeding/residual contact activity, preventive (sprayed sunflower leaf discs); settings: foliar, 144 h, read-out: activity (mortality)
[2] = system: Aphis craccivora (Cowpea Aphid); experiment: whole plant or invertebrate; settings: in Phaseolus vulgaris, 120 h, read-out: translaminar activity (mortality)
[3] = system: Nilaparvata lugens (Brown Rice Planthopper); experiment: Example B6: Nilaparvata lugens, larvicide, feeding/contact (rice seedlings); settings: in Oryza sativa, read-out: activity (mortality, growth regulation, effects on F1 generation)
[4] = system: Aphis craccivora (Cowpea Aphid); experiment: whole plant or invertebrate; assay type: in vivo; settings: 144 h, read-out: activity (mortality)
Excerpt: (§1) Activity Against Aphis craccivora (Cowpea Aphid)
(Mixed Population, Contact/Feeding)
6 days after treatment, samples are checked for mortality.

[5] = system: Aphis craccivora (Cowpea Aphid); experiment: Example B8: Aphis craccivora, mixed population, systemic/feeding (roots of pea seedlings in test solution); assay type: in vivo; settings: 144 h, read-out: activity (mortality)
Excerpt: as §1
(Mixed Population, Systemic/Feeding)
6 days later, samples are checked for mortality.

[6] = system: Myzus persicae (Green Peach Aphid); settings: 144 h, read-out: activity (mortality)
[7] = system: Myzus persicae (Green Peach Aphid); experiment: Example B10: drench activity against Myzus persicae (pea seedlings in field soil); settings: 168 h, read-out: drench activity (mortality)
[8] = system: Tetranychus urticae (Two-Spotted Spider Mite); settings: foliar, 192 h, read-out: activity (egg, larval and adult mortality)

CON1CCC2(CC1)OC(=O)C(c1c(C)cc(C)cc1C)=C2O [P2.3, 4-hydroxy-8-methoxy-3-(2,4,6-trimethyl-phenyl)-1-oxa-8-aza-spiro[4.5]dec-3-en-2-one]
> 80%: mortality at 400 ppm [1] | mortality at 400 ppm [2] | mortality at 400 ppm [3] | mortality at 400 ppm [4] | mortality at 25 ppm [5] | mortality at 400 ppm [6] | mortality at 25 ppm [7] | mortality at 400 ppm [8]
